Drawing on PMC6454709, “Application of WST-8 based colorimetric NAD(P)H detection for quantitative dehydrogenase assays” (BMC Biochemistry, 2019), this text covers Km for two molecules.

Where two headings read alike, the source gives them in different places.

This test concerns T1, Bacillus GDH.
T1 construct: commercial enzyme from GDH activity colorimetric assay kit (Biovision)
Put plainly: WST-8/1-mPMS formazan assay, […] nm, Michaelis-Menten fit. The test is classed as biochemical. Particulars: 20 mM Tris-HCl pH 9.0, 37 °C. (Formazan colour is commonly taken as a measure of viable cells.)

Regarding `OC[C@H]1OC(O)[C@H](O)[C@@H](O)[C@@H]1O` (stereo partly drawn) [D-(+)-glucose], the Km (1 mM NAD+, read-out: KM (mM) / Glucose) was determined as 17.1 ± 2 mM.

As for `NC(=O)c1ccc[n+]([C@@H]2O[C@H](COP(=O)(O)OP(=O)(O)OC[C@H]3O[C@@H](n4cnc5c(N)ncnc54)[C@H](O)[C@@H]3O)[C@@H](O)[C@H]2O)c1` [NAD^+], the Km (250 mM glucose, read-out: KM (mM) / NAD^+) turned out to be 0.271 ± 0.027 mM.
